Test results reported in patent US9499705B2, “Radically polymerizable photo-curable ink jet ink composition” (Seiko Epson Corporation, priority 2013, dated 2016).

Assays:
[1] = Acid dissociation constant pKa of saturated aliphatic carboxylic acids; assay type: physicochemical; conditions: for pKa1: first acid dissociation constant; for pKa2: second acid dissociation constant
Source text: The acid dissociation constant pKa1 of the saturated aliphatic carboxylic acid is preferably 4.0 or more, more preferably 4.0 to 4.5, still more preferably 4.1 to 4.5. If the saturated aliphatic carboxylic acid is divalent or more polyvalent, the second acid dissociation constant pKa2 is preferably 5.0 or more. The acid dissociation constant pKa can be measured by, for example, titration, absorptiometry, or capillary electrophoresis.

[2] = Redispersibility after long-time storage (rate of change in absorbance of agitated ink after one year); assay type: physicochemical; conditions: redispersing effect of the saturated aliphatic carboxylic acid in the ink
Method: Ink bags containing respective ink compositions were allowed to stand at room temperature (25° C.) with the rectangular face of the ink bag in a horizontal position for a year. […] Subsequently, the ink bag was turned upside down and was reciprocally moved 50 times in the same manner with the rectangular face of the ink gab in a horizontal position. After the ink composition in the ink bag was thus agitated, the ink composition was sampled from the upper side in the ink gab with the ink inlet facing up. Then, the absorbance of the sampled ink composition was measured with a spectrophotometer U-3300 (manufactured by Hitachi) and compared with the absorbance before the storage. […] As a larger amount of sediment settles, the density of the white pigment in the ink composition tends to be reduced, and accordingly the absorbance after storage is generally low.

| pKa1 [1] | pKa2 [1] | Redispersion [2] | pKa3 ([1]; third acid dissociation constant) | Structure (SMILES) |
| --- | --- | --- | --- | --- |
| 4.26 | 5.03 | Excellent | – | O=C(O)CCCCC(=O)O [Adipic acid] |
| 2.87 | 4.35 | Fair | 5.69 | O=C(O)CC(O)(CC(=O)O)C(=O)O [Citric acid] |
| 4.64 | – | Good | – | CCCCCCCCCCCCCCCC(=O)O [Palmitic acid] |
| 4 | 5.24 | Good | – | O=C(O)CCC(=O)O [Succinic acid] |
